“Also recorded” adds a separate entry of the source. Where two headings read alike, the source gives them in different places.
Legend:
[1] = Dynamic vapor sorption/desorption (DVS); format: physicochemical
[2] = Single-dose pharmacokinetic study, oral and intravenous, in SD rats; format: in vivo, SD rat; conditions: for AUC(0-inf): read-out: AUCINF—pred; for half-life: read-out: HL_Lambda_z (T1/2) (converted); for Vd/F: read-out: Vz—F—pred;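 as to AUClast: AUClast in h·ng/mL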
Procedure: Form 1, Form 2, and Form 5D were each evaluated via a single-dose pharmacokinetic study following oral and intravenous administration in SD rats. […] Form 1, Form 2, and Form 5Dwere evaluated by rat pharmacokinetics study.
Male SD rat was purchased from Shanghai Sippr B&K Laboratory Animals Co., Ltd. The weight was 180 g˜200 g.
20% HP-β-CD was prepared from dissolving20 g of HP-β-CD (from Sigma) in 100 mL purified water. 0.5% CMC-Na was prepared from dissolving 1 g of CMC-Na (from Aladdin) in 200 mL purified water. The solutions were stored at 2-8 degree.
(§1) Group 1:4.95 mg (equivalent to 4.50 mg of anhydrous free base) of Form 1 was weighed out into a 20 ml bottle, and totally dissolved by 0.225 mL DMSO by sonication. After that, 4.275 mL of 20% HP-β-CD was added, mixed well by sonication. Finally, the pH value was adjusted to 7.0 by sodium hydroxide solution. The clear solution was obtained, and the concentration was 1 mg/mL.
Group 2:10.08 mg (equivalent to 9.164 mg of anhydrous free base) of Form 1 was weighed out into a 20 ml bottle, and then 9.164 mL of 0.5% CMC-Na was added. A white suspension was formed after sonicated by ultrasonic cell disruptor, and the concentration was 1 mg/mL.
Group 3:9.47 mg of Form 2 was weighed out into a 20 ml bottle, and then 9.470 mL of 0.5% CMC-Na was added. After sonicated, it was mixed well by homogenizer for 2 minutes. Finally, a white suspension was formed, and the concentration was 1 mg/mL.
Group 4:9.80 mg (equivalent to 8.909 mg of free base) of Form 5Dwas weighed out into a 20 mL bottle, and then 8.909 mL of 0.5% CMC-Na was added. After sonicated, it was mixed well by homogenizer for 2 minutes. Finally, a white suspension was formed, and the concentration was 1 mg/mL.
as §1, with “Group 5:1.94” for “Group 1:4.95”, “to 1.763” for “to 4.50”, “by 0.088” for “by 0.225”, “that, 1.675” for “that, 4.275”, “was 0.2” for “was 1”
The dose of intravenous administration was 1 mg/kg and 5 mg/kg, respectively. The oral dose was 10 mg/kg. Animals were fasted overnight before drug administration. After the drug administration, the rats were fed at the 4 hours.
About 150˜200 μL of blood was collected at the initial time (only intravenous), and at 0.25, 0.5, 1, 2, 4, 6, 8 and 24 h by jugular venipuncture blooding method. EDTA-K2 was selected as anticoagulant. Blood samples were centrifuged within one hour at 6000 rpm for 8 minutes (placed on wet ice before centrifugation). The supernatant was stored at −20° C. for LC-MS/MS analysis.
The computer program Microsoft Office Excel 2007 (Microsoft, USA) was used to process data and graphics. The pharmacokinetic parameters were calculated by WinNolin 6.4 software.

[3] = Long-term stability of Compound I Form 2 (XRPD); format: physicochemical
Procedure: The stability of Compound I Form 2 was analyzed by the following two experiments.
Experiment A: The following is an X-ray Powder Diffraction Analytical method used to obtain the data shown in FIG. 43 and FIG. 44, and which complies with ChP<0451>/USP/NF<941>/EP10.6 2.9.33. Standard XRPD patterns were collected using a Bruker D8 Advance diffractometer or equivalent instrument.
Parameters for collecting the XRPD shown in FIG. 43 and FIG. 44 is as follows:
The XRPD patterns shown in FIG. 45 and FIG. 46 were collected using a Bruker D2 Phaser X-ray diffractometer. Detector: PSD LynxEye; Sample holder: Zero background sample holder or equivalent; Software: DIFFRAC. Measurement Center, Version V6.5.0 or equivalent; Diffractometer Settings: Diffractometer type: 02 phaser; Goniometer Type: Theta/Theta; Sample Stage: Standard rotating stage; Goniometer Diameter: 282.2 mm; Divergence slit: 1.0 mm; Primary seller slit: 2.5°; Secondary seller slit: 2.5°; Airscatter screen module: 1.0 mm; Tube Element: Cu; Tube parameters: voltage 30 kV; current 10 mA; Scan Parameters: SSD160: Locked coupled; SSD160-2: coupled Two Theta/Theta Scan Type: SSD160: Locked coupled; SSD160-2: coupled Two Theta/Theta; Continuous PSD fast Scan Mode: Continuous PSD fast scan; Rotation Speed: 20 rpm; Start: 3° ˜40° (2 0); Scan Step: 0.02° (2 0); Scan Speed: 0.2s/step; Detector opening: 4.5°; Sample Analysis; Test the sample with the Diffractometer Settings and Scan Parameters. The powder X-ray diffraction pattern of the sample was recorded and calculations were performed according to Bruker D2 Phaser X-ray Diffractometer User Manual V6-Identification of Crystal Form by X-Ray Powder Diffraction (XRPD)-Bruker D2 Phaser.

[4] = male SD rats, oral 10 mg/kg, Average (Table 10)
[5] = male, SD, rat, plasma, po, 10 mg/kg, male SD rats, oral 10 mg/kg, Average (Table 10)
[6] = male, SD, rat, plasma, po, 10 mg/kg, male SD rats, oral 10 mg/kg, individual rats 301/302/303 (c1/c2/c3)

## CCc1nc2ccccn2c1C(=O)c1cc(Br)c(O)c(C#N)c1 [Form 2, 3-bromo-5-[(2-ethylimidazo[1,2-a]pyridin-3-yl)carbonyl]-2-hydroxybenzonitrile]
[1]; 25° C., 80% RH
  DVS (80% RH): 0.40%
[1]; relative humidity decreased back to 0%
  Water remaining within the sample (DVS desorption): about 3.4%
[1]; relative humidity less than 80%
  Hygroscopicity (DVS): low hygroscopicity
[1]; sample following DVS analysis
  Crystal form after DVS analysis (XRPD): converted into Form 1
[1]; when relative humidity reached 85% RH
  Water absorbed (DVS): about 3.8%
[2]; SD rats, oral administration 10 mg/kg, 10 mg/kg
  Exposure and bioavailability (words, comparison): higher dose exposure and bio-availability than Form 1; also recorded: higher exposure (AUC0-1) and better bioavailability than Form 1; also recorded: approximately the same as Form 5D; also recorded: sufficiently high bioavailability
[2]; [4]
  AUClast: 88482.4 ng·h/mL
  Cl—F—pred: 2 mL/min/kg
[2]; male SD rats, oral 10 mg/kg, calculated by intravenous administration of 1 mg/kg, Average (Table 10)
  F: 50.98%
[2]; [5]
  Cmax: 7950 ng/mL
  MRT last: 6.12 h
  Tmax: 4 h
  AUC(0-inf): 89100 ng·h/mL
  half-life: 3.08 h
  Vd/F: 0.52 L/kg
[2]; [6]
  AUC(0-t): 108000 ng·h/mL
  Cmax: 8490 ng/mL
  MRT last: 6.15 h
  Tmax: 4 h
  AUC(0-inf): 92400 ng·h/mL
  half-life: 3.32 h
  Vd/F: 0.45 L/kg
[3]; Experiment A, 25° C.±2° C./60% RH±5% RH
  Period over which the form remains stable (XRPD): at least 12 months
[3]; Experiment A, 40° C.±2° C./75% RH±5% RH
  Period over which the form remains stable (XRPD): at least 6 months
[3]; Experiment B, 25° C.±2° C./60% RH±5% RH
  Period over which the form remains stable (XRPD): at least 48 months
[3]; Experiment B, 40° C.±2° C./75% RH±5% RH
  Period over which the form remains stable (XRPD): at least 6 months
